According to patent US9572788B2, “Cell permeable inhibitors of anaphase promoting complex” (President and Fellows of Harvard College, priority 2014, dated 2017):

How the values were obtained:
APC = APC (Xenopus laevis, UniProt A0A1L8ESF3); experiment: Cyclin B1-luciferase reporter degradation (luciferase assay) in mitotic Xenopus egg extract; format: biochemical; conditions: mitotic Xenopus extract
Procedure: The extract was incubated at room temperature and 3 μL samples were taken at 0, 20, 40 and 60 min.

RPE1-H2B-GFP cells = experiment: Fluorescence live cell imaging with survival (Cox) analysis, RPE1; format: cell-based, human; conditions: proTAME 6 μM; for % rate of mitotic exit: relative to DMSO control, Cox model, apcin/apcin-M 25 μM; for Median mitotic duration: apcin or apcin-M 25 μM
Procedure: RPE1-H2B-GFP or U2OS-H2B-GFP cells were plated in 24-well glass-bottom plates 18-24 hours prior to siRNA transfection using RNAiMax (Invitrogen). After treatment with compound(s), DIC and GFP images were captured at 6-minute intervals for 45 hours. Movies were manually analyzed using Nikon Elements software or Image J.
RPE1-H2B-GFP or U2OS-H2B-GFP cells were plated in 24-well glass-bottom plates (Greiner BioOne, 662892) 18-24 hours prior to siRNA transfection using RNAiMax (Invitrogen). Plates were inserted into a covered chamber supplied with humidified 5% CO2 and mounted onto a motorized microscope stage (Prior Scientific). DIC and FITC images were captured at 6 minute intervals for 45 hours using a Nikon Ti inverted fluorescence microscope fitted with a 37° C. enclosed incubation chamber and using a 20× Plan Apo 0.75 NA objective lens. A Hamamatsu ORCA cooled CCD camera collected the images with 2×2 binning using Nikon Elements software (version 3.0). Movies were manually analyzed using Nikon Elements software or ImageJ. Mitotic duration was defined as the time from nuclear envelope breakdown until anaphase, in the case of normal mitosis, or until exit from prolonged mitosis as indicated by cytoplasmic blebbing accompanied by changes in chromatin as detected by H2B-GFP.
In order to detect differences in mitotic duration among cells in the live-cell imaging screen, a stratified Cox proportional hazards model (Cox, D. R. Regression models and life tables. J Royal Statistics Soc B34, 187-220, (1972)) was fit to censored mitotic duration times (where cells that are not observed exiting mitosis or dying in mitosis are censored at the last known time in mitosis). The Cox proportional hazards model is a semiparameteric approach to modeling time-to-event data, in which covariates are assumed to have constant proportional effects over time relative to a baseline hazard function that can take any form. In this case, stratification on “person” (the individual who analyzed the movie) and “date” (the date the assay was run) allow the baseline hazard function to differ across experimental blocks, but assume a fixed effect of treatment across experimental blocks. The model is thus: hi(t|Z=j)=hj(t)exp(β1×apcini+β2×apcinMi+β3×proTAMEi+β4×proTAMEi:apcinMi+β5×proTAMEi:apcini), j=1 . . . 4 where hi(t) is the hazard function of cell i at time t, hj(t) is the baseline hazard for strata j (with 4 levels, one for each person and date combination), apcini, proTAMEi, and apcinMi are indicator variables for presence or absence of the compounds apcin, proTAME, and apcin-M, respectively in cell i, proTAMEi:apcini is an indicator variable that is 1 if both proTAME and apcin are present in cell i, and 0 otherwise, and proTAMEi:apcinMi is a similar indicator variable for proTAME+apcin-M. In this model, […] represent the effects of apcin, apcin-M, and proTAME alone, while β4 and β5 represent the additional non-additive effect of the compounds beyond what is predicted from the combination of effects of the two compounds alone. This model was fit separately to cells treated with control siRNA or Mad2 siRNA. All statistical analysis was carried out in R 3.0.0 using the functions available as part of the survival package.
In this model, the β coefficients represent the log hazard ratios for exiting mitosis between treated and untreated cells. However, for ease of interpretation the β coefficients are exponentiated to convert them to normal hazard ratios, and then multiplied by 100 to convert to percentages relative to DMSO. These hazard ratios, which are referred to as mitotic exit rate, represent the relative probability that a treated cell in mitosis at time t will exit mitosis in the next time interval compared to an untreated cell.
For ease of interpretation, the treatment effects are presented relative to DMSO for all individual compounds and compound combinations. […]

HeLa cells = experiment: ProTAME activation analysis (LC/MS) in HeLa cells; format: in vitro ADME, human; conditions: 20 μM
Procedure: ProTAME was added to interphase Xenopus extract at 50 μM or cell growth media at 20 μM. For interphase extract, 800 μl of sample was collected at 0 min, 10 min, 20 min and 30 min after addition of proTAME and diluted to 8 ml with XB. For cell culture, approximately 800,000 cells were collected at 1 h, 2 h and 3 h after addition of proTAME and lysed in 400 μl lysis buffer as described above and subsequently diluted to 4 ml with lysis buffer. The diluted extract or cell lysate was extracted with 1.5 volume of ethyl acetate. The extracts were dried in vacuo and the dry extracts were resuspended in 200 μl of methanol for LC/MS analysis. LC/MS data were obtained using an Agilent series 1200 LC/6130 MS system with a reversed-phase C18 column (Phenomenex Luna C18(2), 4.6 mm×100 mm, 5 μm) and a CH3CN/H2O gradient solvent system beginning with 10% aqueous CH3CN and ending at 100% CH3CN at 20 min. 10 μl of each sample was injected for each analysis.

Chain of APC (A0A1L8ESF3 entry or part of it): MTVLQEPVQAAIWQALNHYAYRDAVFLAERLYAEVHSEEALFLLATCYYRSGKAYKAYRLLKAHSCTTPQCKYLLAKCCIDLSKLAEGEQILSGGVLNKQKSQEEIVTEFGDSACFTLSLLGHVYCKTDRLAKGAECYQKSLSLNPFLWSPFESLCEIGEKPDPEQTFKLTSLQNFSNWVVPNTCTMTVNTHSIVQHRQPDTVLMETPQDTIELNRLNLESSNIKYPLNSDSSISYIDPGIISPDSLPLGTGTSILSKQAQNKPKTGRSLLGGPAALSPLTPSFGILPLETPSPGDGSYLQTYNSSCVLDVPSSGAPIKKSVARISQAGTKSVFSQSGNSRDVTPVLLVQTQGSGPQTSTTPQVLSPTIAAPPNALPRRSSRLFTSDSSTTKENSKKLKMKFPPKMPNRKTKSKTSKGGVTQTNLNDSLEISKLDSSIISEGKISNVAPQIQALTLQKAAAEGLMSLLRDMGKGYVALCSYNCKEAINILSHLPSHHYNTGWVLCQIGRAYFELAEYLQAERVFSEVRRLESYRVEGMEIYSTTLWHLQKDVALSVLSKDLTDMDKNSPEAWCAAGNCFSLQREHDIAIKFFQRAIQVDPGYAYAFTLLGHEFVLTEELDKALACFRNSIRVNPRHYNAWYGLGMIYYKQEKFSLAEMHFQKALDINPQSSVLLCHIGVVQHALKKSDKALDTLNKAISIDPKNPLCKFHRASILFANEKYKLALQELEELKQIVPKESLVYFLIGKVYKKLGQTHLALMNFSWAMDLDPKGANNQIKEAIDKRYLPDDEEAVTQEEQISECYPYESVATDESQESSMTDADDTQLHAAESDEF
Chain of APC (Q6DFD4 entry or part of it, further chain): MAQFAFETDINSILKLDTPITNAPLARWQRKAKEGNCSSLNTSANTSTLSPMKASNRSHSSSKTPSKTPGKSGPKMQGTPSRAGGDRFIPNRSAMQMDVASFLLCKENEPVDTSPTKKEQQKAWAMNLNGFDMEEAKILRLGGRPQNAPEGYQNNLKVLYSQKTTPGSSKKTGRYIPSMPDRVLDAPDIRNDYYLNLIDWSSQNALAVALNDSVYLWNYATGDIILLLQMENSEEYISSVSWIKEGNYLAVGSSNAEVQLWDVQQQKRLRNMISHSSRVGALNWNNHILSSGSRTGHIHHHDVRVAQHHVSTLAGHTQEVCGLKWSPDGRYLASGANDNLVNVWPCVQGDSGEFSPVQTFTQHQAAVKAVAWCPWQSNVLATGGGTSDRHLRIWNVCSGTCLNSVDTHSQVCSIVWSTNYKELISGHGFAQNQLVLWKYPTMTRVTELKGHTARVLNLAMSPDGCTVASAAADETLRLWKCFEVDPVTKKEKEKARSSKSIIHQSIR

COC(=O)[C@H](CCCN/C(=N\C(=O)OCOC(=O)Cc1ccccc1)NC(=O)OCOC(=O)Cc1ccccc1)NS(=O)(=O)c1ccc(C)cc1 [proTAME]
Inhibition of cyclin B-luciferase proteolysis (APC): efficiently inhibits cyclin B-luciferase proteolysis | % rate of mitotic exit (RPE1-H2B-GFP cells; Mad2 siRNA): 0.22% | Median mitotic duration (RPE1-H2B-GFP cells; Table 3, control siRNA): 120 | Median mitotic duration (RPE1-H2B-GFP cells; Table 3, mad2 siRNA): 114 | % rate of mitotic exit (RPE1-H2B-GFP cells; control siRNA): 2.32% | Activation of prodrug (HeLa cells): activated efficiently in HeLa cells
